What was measured:
[1] = target: T1, β-Amyloid (Aβ1-42) fibrils (Homo sapiens, UniProt P05067); experiment: Test of inhibitory binding ability against [125I]TZDM on β-amyloid fibrils; conditions: Aβ1-42 fibrils 10 nM, [125I]TZDM 0.05 nM, room temperature 3 hours; read-out: Ki, binding affinity (Ki) for [125I]TZDM (48)
T1 construct: β-Amyloid peptide (Aβ1-42, Bachem, 1 mg); purchased Bachem
Description: β-Amyloid peptide (Aβ1-42, Bachem, 1 mg) was completely dissolved in DMSO (1 mL) and then mixed well after adding phosphate buffer (pH 7.4, 9 mL). β-Amyloid fibrils produced by incubating at 37° C. for 60 minutes were distributed into e-tubes, 0.5 mL each, and stored in a refrigerator at −80° C.
10% ethanol (0.850 mL) was placed in a 12 mm×75 mm borosilicate test tube. […] Then, after adding [^125I]TZDM (48) (50 μL, final reaction concentration=0.05 nM), the resulting mixture was subjected to incubation at room temperature for 3 hours. 3 Hours later, after separating [^125I]TZDM (48) bound to the β-amyloid (Aβ1-42) fibrils from unbound [^125I]TZDM (48) using a cell harvester, gamma radiation was measured using a gamma counter. 2 μM ThT was used for testing of non-specific binding.

[2] = Test of in vivo distribution of F-18-labeled compounds (concentration in brain, passage through blood-brain barrier); design: Concentration in brain of rats, At 2 minutes ([2 min]) / Concentration in brain of rats, At 30 minutes ([30 min]): unit not given here; conditions: SD rats; for Concentration in brain of rats, Highest ([peak]) / Time of highest concentration in brain (in parentheses): F-18-labeled compound; for [peak]/[30 min] / [2 min]/[30 min]: ratio of brain concentrations; for Initial brain inflow: at 2 minutes; for [2 min]/[30 min]: value smaller than 1 = cannot pass the blood-brain barrier well
Description: In order to test the passing of the aryl derivative with the (3-fluoro-2-hydroxy)propyl group according to the present disclosure through the blood-brain barrier, the following experiment was carried out.
After administering the F-18-labeled aryl derivatives prepared in Examples 10 to 13 or 2-(4-(N-monomethyl)aminophenyl)-6-(3-[^18F]fluoropropoxy)benzothiophene with no hydroxyl group, as control, to SD rats, peak concentration in the brain and concentrations at 2 minutes ([2 min]) and 30 minutes ([30 min]) were measured and pharmacokinetic properties were quantitatively compared.
A larger value indicates easier passage through the blood-brain barrier.

T1 sequence (P05067 672-713 limits assumed): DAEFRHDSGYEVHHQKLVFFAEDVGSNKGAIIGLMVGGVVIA

| SMILES | Ki [1] | Concentration in brain of rats, At 2 minutes ([2 min]) [2] | Concentration in brain of rats, At 30 minutes ([30 min]) [2] | Concentration in brain of rats, Highest ([peak]) [2] | Time of highest concentration in brain (in parentheses) [2] | [peak]/[30 min] [2] | also measured |
| --- | --- | --- | --- | --- | --- | --- | --- |
| CNc1ccc(-c2nc3ccc(OC[C@H](O)CF)cc3s2)cn1 [Example 8, 2-[2-(N-monomethyl)aminopyridin-5-yl]-6-[(S)-3-fluoro-2-hydroxypropoxy]benzothiazole] | 0.16 nM | – | – | – | – | – | – |
| CNc1cccc(-c2nc3ccc(OCC(O)C[18F])cc3s2)c1 (racemic) [Example 12, 2-[3-(N-monomethyl)aminophenyl]-6-[(R/S)-3-[^18F]fluoro-2-hydroxypropoxy]benzothiazole] | – | 15.7 | 2.9 | 22.6 | 25 s | 7.7 | – |
| CNc1ccc(-c2cc3ccc(OCC(O)C[18F])cc3s2)cn1 (racemic) [Example 10, 2-[2-(N-monomethyl)aminopyridin-5-yl]-6-[(R/S)-3-[^18F]fluoro-2-hydroxypropoxy]benzothiophene] | – | 16.5 | 2.2 | 22.4 | 30 s | 10.3 | [2 min]/[30 min] value relative to that of the compound with no hydroxyl group at the propyl residue [2]: 8.1 times; Initial brain inflow [2]: very rapid; [2 min]/[30 min] [2]: 7.5 |
| CNc1ccc(-c2cc3ccc(OCC(O)CF)cc3s2)cn1 (racemic) [Example 2, 2-[2-(N-monomethyl)aminopyridin-5-yl]-6-[(R/S)-3-fluoro-2-hydroxypropoxy]benzothiophene] | 0.49 nM | – | – | – | – | – | – |
| CNc1ccc(-c2cc3ccc(OCC(O)CF)cc3s2)nn1 (racemic) [Example 5, 2-[3-(N-monomethyl)aminopyridazin-6-yl]-6-[(R/S)-3-fluoro-2-hydroxypropoxy]benzothiophene] | 0.42 nM | – | – | – | – | – | – |
| CNc1ccc(-c2cc3ccc(OCCC[18F])cc3s2)cc1 [Control, 2-(4-(N-monomethyl)aminophenyl)-6-(3-[^18F]fluoropropoxy)benzothiophene, reference compound] | – | 2.02 | 2.18 | – | – | – | Initial brain inflow [2]: very low; [2 min]/[30 min] [2]: 0.93; [2 min]/[30 min] ([2]; listed as 2-[4-(N-monomethyl)aminophenyl]-6-β-[^18F]fluoropropoxy)benzothiophene): less than or equal to 1 |
| CNc1ccc(-c2nc3ccc(OCC(O)C[18F])cc3s2)cn1 (racemic) [Example 13, 2-[2-(N-monomethyl)aminopyridin-5-yl]-6-[(R/S)-3-[^18F]fluoro-2-hydroxypropoxy]benzothiazole] | – | 6.5 | 1.0 | 11.1 | 45 s | 10.8 | – |
| CNc1ccc(-c2cc3ccc(OCC(O)CF)cc3s2)cc1 (racemic) [Example 1, 2-[4-(N-monomethyl)aminophenyl]-6-[(R/S)-3-fluoro-2-hydroxypropoxy]benzothiophene] | 1.2 nM | – | – | – | – | – | – |
| CNc1ccc(-c2nc3ccc(OCC(O)CF)cc3s2)cc1 (racemic) [Example 6, 2-[4-(N-monomethyl)aminophenyl]-6-[(R/S)-3-fluoro-2-hydroxypropoxy]benzothiazole] | 1.06 nM | – | – | – | – | – | – |

— patent publication US9133143B2, “(3-fluoro-2-hydroxy)propyl-functionalized aryl derivatives or pharmaceutically acceptable salts thereof, method for preparing same, and pharmaceutical composition containing same as active ingredient for the diagnosis or treatment of neurodegenerative brain diseases” (FUTURECHEM CO., LTD., priority 2009, dated 2015)
